Assays:
[1] = system: acetylated histone H3 in Colo205 cells; assay: Histone acetylation assay (immuno-blotting with acetylated histone H3 antibody); assay type: cell-based, human; details: 10 μM, 24 h, western blot
Experimental: Histone Acetylation Assay
A hallmark of histone deacetylase (HDAC) inhibition is the increase in the acetylation level of histones. Histone acetylation, including H3, H4 and H2A can be detected by immuno-blotting (western-blot). Colo205 cells, approximately 5×10^5 cells, were seeded in the previously described medium, cultivated for 24 h and subsequently treated with HDAC inhibitory agents and a positive control at 10 μM final concentration. After 24 h, cells were harvested and lysed according to the instruction from Sigma Mammalian Cell Lysis Kit. The protein concentration was quantified using BCA method (Sigma Pte Ltd). The protein lysate was separated using 4-12% bis-tris SDS-PAGE gel (Invitrogen Pte Ltd) and was transferred onto PVDF membrane (BioRad Pte Ltd). The membrane was probed using primary antibody specific for acetylated histone H3 (Upstate Pte Ltd). The detection antibody, goat anti rabbit antibody conjugated with HRP was used according to the manufacturing instruction (Pierce Pte Ltd). After removing the detection antibody from the membrane, an enhanced chemiluminescent substrate for detection of HRP (Pierce Pte Ltd) was added onto the membrane. After removing the substrate, the membrane was exposed to an X-ray film (Kodak) for 1 sec-20 mins. The X-ray film was developed using the X-ray film processor. The density of each band observed on the developed film could be qualitatively analysed using UVP Bioimaging software (UVP, Inc, Upland, Calif.). The values were then normalized against the density of actin in the corresponding samples to obtain the expression of the protein.
The results of immuno-blotting assay using acetylated histone H3 antibody are shown in Table 5 for representative compounds of this invention.

[2] = molecular target: HDAC1 enzyme (recombinant GST-HDAC1) (Homo sapiens (Human), UniProt Q13547); assay: In vitro HDAC assay for determination of IC50 values (BIOMOL fluorescent-based HDAC activity assay); assay type: biochemical; details: Flur de lys substrate, 2 h room temperature, read-out: IC50 (HDAC 1)
Outline: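 Recombinant human GST-HDAC1, baculovirus-expressed in SF9 cells and glutathione-purified, tested with a fluorogenic deacetylase substrate; Fluor de Lys developer added for 10 min. Fluorescence at 360 nm excitation/460 nm emission; IC50 fitted from a concentration series.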

Colo205 cells = assay: Cell-based proliferation assay for determination of GI50 values (CyQUANT); parameters: species or system human; details: Homo sapiens
Outline: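 Colo205 cells in RPMI 1640 with 5% FBS, seeded 5000/well and grown 24 h at 37 °C. Exposure to compound lasted 96 h, with growth read by CyQUANT. GI50 = concentration giving 50% growth inhibition, from dose-response curves.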

HDAC1 enzyme (recombinant GST-HDAC1), sequence (Q13547 whole entry): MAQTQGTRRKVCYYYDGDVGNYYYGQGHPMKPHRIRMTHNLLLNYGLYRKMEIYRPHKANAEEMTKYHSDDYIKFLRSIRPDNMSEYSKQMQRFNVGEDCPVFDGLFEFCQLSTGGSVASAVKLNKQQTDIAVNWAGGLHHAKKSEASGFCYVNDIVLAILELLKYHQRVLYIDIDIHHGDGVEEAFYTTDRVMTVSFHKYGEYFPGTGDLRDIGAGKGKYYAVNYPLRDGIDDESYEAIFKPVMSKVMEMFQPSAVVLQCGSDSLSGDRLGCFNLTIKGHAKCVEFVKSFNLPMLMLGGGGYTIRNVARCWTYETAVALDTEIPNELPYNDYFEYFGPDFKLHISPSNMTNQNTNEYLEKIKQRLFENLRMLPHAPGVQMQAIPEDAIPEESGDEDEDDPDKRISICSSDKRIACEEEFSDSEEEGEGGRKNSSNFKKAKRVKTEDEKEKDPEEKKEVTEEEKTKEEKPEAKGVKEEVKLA

Row | IC50 [2] [µM] | GI50 (Colo205 cells; COLO 205, 96 h treatment) [µM] | GI50 (Colo205 cells; COLO 205, 96 h, 96 h treatment) [µM] | Compound | Histone acetylation activities (Histone-3) [1]
1 | 0.16 | 0.44 |  | CCCCNCc1c(-c2ccccc2)nc2cc(/C=C/C(=O)NO)ccn12 [Compound 39, 3-(3-Butylaminomethyl-2-phenyl-imidazo[1,2-a]pyridin-7-yl)-N-hydroxy-acrylamide] | active
2 | 0.24 | 0.79 |  | CCCN(C)Cc1c(-c2ccccc2)nc2cc(C=CC(=O)NO)ccn12 [Compound 40, N-Hydroxy-3-{3-[(methyl-propyl-amino)-methyl]-2-phenyl-imidazo[1,2-a]pyridin-7-yl}-acrylamide] | active
3 | 0.045 | 0.26 |  | CC(C)(C)NCc1c(-c2ccccc2)nc2cc(/C=C/C(=O)NO)ccn12 [Compound 45, 3-[3-(tert-Butylamino-methyl)-2-phenyl-imidazo[1,2-a]pyridin-7-yl]-N-hydroxy-acrylamide] | active
4 | 0.16 | 0.59 |  | CCCCNCc1c(C(C)(C)C)nc2cc(/C=C/C(=O)NO)ccn12 [Compound 49, 3-(2-tert-Butyl-3-butylaminomethyl-imidazo[1,2-a]pyridin-7-yl)-N-hydroxy-acrylamide] | active
5 | 0.084 | 0.48 |  | O=C(/C=C/c1ccn2c(CN3CCCC3)c(-c3ccccc3)nc2c1)NO [Compound 60, N-Hydroxy-3-(2-phenyl-3-pyrrolidin-1-ylmethyl-imidazo[1,2-a]pyridin-7-yl)-acrylamide] | active
6 | 0.063 | 0.54 |  | CCCCNCc1c(-c2ccc(F)cc2)nc2cc(/C=C/C(=O)NO)ccn12 [Compound 63, 3-[3-Butylaminomethyl-2-(4-fluoro-phenyl)-imidazo[1,2-a]pyridin-7-yl]-N-hydroxy-acrylamide] | active
7 | 0.051 | 0.27 |  | CC(C)(C)NCc1c(-c2ccc(F)cc2)nc2cc(/C=C/C(=O)NO)ccn12 [Compound 64, 3-[3-(tert-Butylamino-methyl)-2-(4-fluoro-phenyl)-imidazo[1,2-a]pyridin-7-yl]-N-hydroxy-acrylamide] | active
8 | 0.05 | 0.52 |  | CCN(CCC(C)(C)C)Cc1c(-c2ccccc2)nc2cc(/C=C/C(=O)NO)ccn12 [Compound 122, 3-(3-{[(3,3-Dimethyl-butyl)-ethyl-amino]-methyl}-2-phenyl-imidazo[1,2-a]pyridin-7-yl)-N-hydroxy-acrylamide] | 
9 | 0.04 |  | 0.18 | CCCc1nc2cc(/C=C/C(=O)NO)ccn2c1CNC(C)(C)C [Compound 123, 3-[3-(tert-Butylamino-methyl)-2-propyl-imidazo[1,2-a]pyridin-7-yl]-N-hydroxy-acrylamide] | 
10 | 0.05 | 0.16 |  | CCN(CCC(C)(C)C)Cc1c(C)nc2cc(/C=C/C(=O)NO)ccn12 [Compound 125, 3-(3-{[(3,3-Dimethyl-butyl)-ethyl-amino]-methyl}-2-methyl-imidazo[1,2-a]pyridin-7-yl)-N-hydroxyacrylamide] | 
11 | 0.03 | 0.08 |  | CCCc1nc2cc(/C=C/C(=O)NO)ccn2c1CN(CC)CCC(C)C [Compound 126, 3-(3-{[Ethyl-(3-methyl-butyl)-amino]-methyl}-2-propyl-imidazo[1,2-a]pyridin-7-yl)-N-hydroxy-acrylamide] | 
12 | 0.02 |  | 0.07 | CCCc1nc2cc(/C=C/C(=O)NO)ccn2c1CN(CC)CCC(C)(C)C [Compound 127, 3-(3-{[(3,3-Dimethyl-butyl)-ethyl-amino]-methyl}-2-propyl-imidazo[1,2-a]pyridin-7-yl)-N-hydroxy-acrylamide] | 
13 | 0.02 | 0.07 |  | CCCCCc1nc2cc(/C=C/C(=O)NO)ccn2c1CNC(C)(C)C [Compound 128, 3-[3-(tert-Butylamino-methyl)-2-pentyl-imidazo[1,2-a]pyridin-7-yl]-N-hydroxy-acrylamide] | 
14 | 0.04 |  | 0.15 | CCCCCc1nc2cc(/C=C/C(=O)NO)ccn2c1CN(CC)CCCC [Compound 129, 3-{3-[(Butyl-ethyl-amino)-methyl]-2-pentyl-imidazo[1,2-a]pyridin-7-yl}-N-hydroxy-acrylamide] | 
15 | 0.03 |  | 0.14 | CCCCCc1nc2cc(/C=C/C(=O)NO)ccn2c1CN(CC)CCC(C)C [Compound 130, 3-(3-{[Ethyl-(3-methyl-butyl)-amino]-methyl}-2-pentyl-imidazo[1,2-a]pyridin-7-yl)-N-hydroxy-acrylamide] | 
16 | 0.03 | 0.15 |  | CCCCCc1nc2cc(/C=C/C(=O)NO)ccn2c1CN(CC)CCC(C)(C)C [Compound 131, 3-(3-{[(3,3-Dimethyl-butyl)-ethyl-amino]-methyl}-2-pentyl-imidazo[1,2a]pyridin-7-yl)-N-hydroxy-acrylamide] | 
17 | 0.04 | 0.16 |  | CCCCN(CC)Cc1c(CCC)nc2cc(/C=C/C(=O)NO)ccn12 [Compound 132, 3-{3-[(Butyl-ethylamino)-methyl]-2-propyl-imidazo[1,2-a]pyridin-7-yl}-N-hydroxy-acrylamide] | 
18 | 0.05 | 0.21 |  | CC(C)Cc1nc2cc(/C=C/C(=O)NO)ccn2c1CNC(C)(C)C [Compound 133, 3-[3-(tert-Butylamino-methyl)-2-isobutyl-imidazo[1,2-a]pyridin-7-yl]-N-hydroxy-acrylamide] | 
19 | 0.04 |  | 0.15 | CCCCN(CC)Cc1c(CC(C)C)nc2cc(/C=C/C(=O)NO)ccn12 [Compound 134, 3-{3-[(Butyl-ethyl-amino)-methyl]-2-isobutyl-imidazo[1,2-a]pyridin-7-yl}-N-hydroxy-acrylamide] | 
20 | 0.03 | 0.26 |  | CCc1nc2cc(/C=C/C(=O)NO)ccn2c1CNC(C)(C)C [Compound 137, 3-[3-(tert-Butylamino-methyl)-2-ethyl-imidazo[1,2-a]pyridin-7-yl]-N-hydroxy-acrylamide] | 
21 | 0.05 | 0.18 |  | CCCCN(CC)Cc1c(CC)nc2cc(/C=C/C(=O)NO)ccn12 [Compound 138, 3-{3-[(Butyl-ethyl-amino)-methyl]-2-ethyl-imidazo[1,2-a]pyridin-7-yl}-N-hydroxy-acrylamide] | 
22 | 0.02 | 0.1 |  | CCc1nc2cc(/C=C/C(=O)NO)ccn2c1CN(CC)CCC(C)C [Compound 139, 3-(2-Ethyl-3-{[ethyl-(3-methyl-butyl)-amino]-methyl}-imidazo[1,2-a]pyridin-7-yl)-N-hydroxy-acrylamide] | 
23 | 0.02 | 0.1 |  | CC(C)CCc1nc2cc(/C=C/C(=O)NO)ccn2c1CNC(C)(C)C [Compound 140, 3-[3-(tert-Butylamino-methyl)-2-(3-methyl-butyl)-imidazo[1,2-a]pyridin-7-yl]-N-hydroxy-acrylamide] | 
24 | 0.04 | 0.16 |  | CCCCN(CC)Cc1c(CCC(C)C)nc2cc(/C=C/C(=O)NO)ccn12 [Compound 141, 3-[3-[(Butyl-ethyl-amino)-methyl]-2-(3-methyl-butyl)-imidazo[1,2a]pyridin-7-yl]-N-hydroxy-acrylamide] | 
25 | 0.04 | 0.13 |  | CCN(CCC(C)(C)C)Cc1c(CCC(C)C)nc2cc(/C=C/C(=O)NO)ccn12 [Compound 143, 3-[3-{[(3,3-Dimethyl-butyl)-ethyl-amino]-methyl}-2-(3-methyl-butyl)-imidazo[1,2-a]pyridin-7-yl]-N-hydroxy-acrylamide] | 

From patent US8648092B2, “Imidazo[1,2-a]pyridine derivatives: preparation and pharmaceutical applications” (MEI Pharma, priority 2005, dated 2014)
